Tested on: 855422-203-R-J1-PDC complex spheroid viability
Test: Anticancer human tumor 855422-203-R-J1-PDC patient-derived bladder carcinoma cell line growth inhibition [POLQ]
Conditions: for IC50: curve of first compound; for viability, T/C: stronger effect = lower value
Outline: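 PDC + HUVEC + MSC complex spheroids; POLQ inhibitors ± partner drugs; top conc. at/near clinical Cmax, else 10 microM (SN-38 1 microM), half-log dilutions; 37 degrees C, 5% CO2.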

[1] = second compound 0.0316 µM, first compound 0.0316 µM
[2] = second compound 0.0316 µM, first compound 0.1 µM
[3] = second compound 0.0316 µM, first compound 0.316 µM
[4] = second compound 0.0316 µM, first compound 1 µM
[5] = second compound 0.0316 µM, first compound 3.16 µM
[6] = second compound 0.0316 µM, first compound 10 µM
[7] = second compound 0.1 µM, first compound 0.0316 µM
[8] = second compound 0.1 µM, first compound 0.1 µM
[9] = second compound 0.1 µM, first compound 0.316 µM
[10] = second compound 0.1 µM, first compound 1 µM
[11] = second compound 0.1 µM, first compound 3.16 µM
[12] = second compound 0.1 µM, first compound 10 µM
[13] = second compound 0.316 µM, first compound 0.0316 µM
[14] = second compound 0.316 µM, first compound 0.1 µM
[15] = second compound 0.316 µM, first compound 0.316 µM
[16] = second compound 0.316 µM, first compound 1 µM
[17] = second compound 0.316 µM, first compound 3.16 µM
[18] = second compound 0.316 µM, first compound 10 µM
[19] = second compound 1 µM, first compound 0.0316 µM
[20] = second compound 1 µM, first compound 0.1 µM
[21] = second compound 1 µM, first compound 0.316 µM
[22] = second compound 1 µM, first compound 1 µM
[23] = second compound 1 µM, first compound 3.16 µM
[24] = second compound 1 µM, first compound 10 µM
[25] = second compound 3.16 µM, first compound 0.0316 µM
[26] = second compound 3.16 µM, first compound 0.1 µM
[27] = second compound 3.16 µM, first compound 0.316 µM
[28] = second compound 3.16 µM, first compound 1 µM
[29] = second compound 3.16 µM, first compound 3.16 µM
[30] = second compound 3.16 µM, first compound 10 µM
[31] = second compound 10 µM, first compound 0.0316 µM
[32] = second compound 10 µM, first compound 0.1 µM
[33] = second compound 10 µM, first compound 0.316 µM
[34] = second compound 10 µM, first compound 1 µM
[35] = second compound 10 µM, first compound 3.16 µM
[36] = second compound 10 µM, first compound 10 µM
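Also: spheroids exposed to compounds for seven days before readout.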

For C#Cc1c(F)ccc2cc(O)cc(-c3ncc4c(N5CC6CCC(C5)N6)nc(OCC56CCCN5CC(F)C6)nc4c3F)c12 (centres undefined) + Nc1ccc(C#CCN(C(=O)Cc2ncc(C(F)(F)F)cc2C(F)(F)F)c2ccc(F)cc2)nn1, the IC50 (second compound 0.0316 µM) was greater than 10 µM, the IC50 (second compound 0.1 µM) was greater than 10 µM and the IC50 (second compound 0.316 µM) was greater than 10 µM. The IC50 (second compound 1 µM) was greater than 10 µM, the IC50 (second compound 3.16 µM) was greater than 10 µM and the IC50 (second compound 10 µM) was greater than 10 µM. The viability, T/C [1] was 110%, the viability, T/C [2] was 110% and the viability, T/C [3] was 102%. The viability, T/C [4] was 98%, the viability, T/C [5] was 110% and the viability, T/C [6] was 109%. It also gave a viability, T/C [7] of 96.4%, a viability, T/C [8] of 106% and a viability, T/C [9] of 85.6%. It also gave a viability, T/C [10] of 101%, a viability, T/C [11] of 138% and a viability, T/C [12] of 102%. For the same compound, the viability, T/C [13] was 100%, the viability, T/C [14] was 120% and the viability, T/C [15] was 124%. The viability, T/C [16] was 111%, the viability, T/C [17] was 120% and the viability, T/C [18] was 115%. The viability, T/C [19] was 107%, the viability, T/C [20] was 98% and the viability, T/C [21] was 107%. It also gave a viability, T/C [22] of 109%, a viability, T/C [23] of 113% and a viability, T/C [24] of 99%. The viability, T/C [25] was 92.5%, the viability, T/C [26] was 99% and the viability, T/C [27] was 97.9%. For the same compound, the viability, T/C [28] was 97.6%, the viability, T/C [29] was 108% and the viability, T/C [30] was 106%. It also gave a viability, T/C [31] of 103%, a viability, T/C [32] of 94.3% and a viability, T/C [33] of 90.7%. It also gave a viability, T/C [34] of 100%, a viability, T/C [35] of 103% and a viability, T/C [36] of 91.3%.

For CC1COCCN1c1cc(C2(S(C)(=N)=O)CC2)nc(-c2ccnc3[nH]ccc23)n1 (centres undefined) + Nc1ccc(C#CCN(C(=O)Cc2ncc(C(F)(F)F)cc2C(F)(F)F)c2ccc(F)cc2)nn1, the IC50 (second compound 0.0316 µM) was 5.25 µM, the IC50 (second compound 0.1 µM) was 3.92 µM and the IC50 (second compound 0.316 µM) was 3.05 µM. It also gave an IC50 (second compound 1 µM) of 3.4 µM, an IC50 (second compound 3.16 µM) of 2.89 µM and an IC50 (second compound 10 µM) of 2.53 µM. For the same compound, the viability, T/C [1] was 104%, the viability, T/C [2] was 98.9% and the viability, T/C [3] was 132%. The viability, T/C [4] was 98.2%, the viability, T/C [5] was 78.2% and the viability, T/C [6] was 14.9%. The viability, T/C [7] was 111%, the viability, T/C [8] was 124% and the viability, T/C [9] was 99.8%. The viability, T/C [10] was 187%, the viability, T/C [11] was 57.6% and the viability, T/C [12] was 16.6%. It also gave a viability, T/C [13] of 95.4%, a viability, T/C [14] of 111% and a viability, T/C [15] of 102%. It also gave a viability, T/C [16] of 180%, a viability, T/C [17] of 47.8% and a viability, T/C [18] of 13.9%. The viability, T/C [19] was 93.3%, the viability, T/C [20] was 108% and the viability, T/C [21] was 116%. It also gave a viability, T/C [22] of 144%, a viability, T/C [23] of 52.4% and a viability, T/C [24] of 14.1%. For the same compound, the viability, T/C [25] was 111%, the viability, T/C [26] was 91.7% and the viability, T/C [27] was 119%. The viability, T/C [28] was 189%, the viability, T/C [29] was 43.2% and the viability, T/C [30] was 11.3%. The viability, T/C [31] was 97.7%, the viability, T/C [32] was 96.1% and the viability, T/C [33] was 113%. For the same compound, the viability, T/C [34] was 152%, the viability, T/C [35] was 34.3% and the viability, T/C [36] was 11.3%.
